Laboratory results published in PubChem BioAssay (NCI).
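Where inhibition never reached the appropriate level, the endpoint shown equals the highest concentration tested. Otherwise, values were interpolated linearly from a five-concentration, 48-hour dose response in 96-well plates. The concentration for 50% growth inhibition is given as GI50. Definition used: TGI = concentration required for complete inhibition of growth.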

Tests used:
Test in all cases: NCI-60 cell line screen, 48 h
[1] = system: 786-0 renal
[2] = system: A498 renal
[3] = system: A549 NSCLC
[4] = system: ACHN renal
[5] = system: BT-549 breast
[6] = system: CAKI-1 renal
[7] = system: CCRF-CEM leukemia
[8] = system: DU-145 prostate
[9] = system: EKVX NSCLC
[10] = system: HCC-2998 colon
[11] = system: HCT-116 colon
[12] = system: HCT-15 colon
[13] = system: HL-60(TB) leukemia
[14] = system: HOP-62 NSCLC
[15] = system: HOP-92 NSCLC
[16] = system: HS 578T breast
[17] = system: HT29 colon
[18] = system: IGROV1 ovarian
[19] = system: K-562 leukemia
[20] = system: KM12 colon
[21] = system: LOX IMVI melanoma
[22] = system: M14 melanoma
[23] = system: MALME-3M melanoma
[24] = system: MCF7 breast
[25] = system: MDA-MB-231 breast
[26] = system: MDA-MB-435
[27] = system: MOLT-4 leukemia

CN1CCN(c2nc(-c3csc(-c4cccs4)n3)cc3ccccc23)CC1
GI50 [1]: 1640 nM
TGI [1]: 3.15 µM
GI50 [2]: 1470 nM
TGI [2]: 3.27 µM
GI50 [3]: 1760 nM
TGI [3]: 3.55 µM
GI50 [4]: 1800 nM
TGI [4]: 3.25 µM
GI50 [5]: 1820 nM
TGI [5]: 3.94 µM
GI50 [6]: 1610 nM
TGI [6]: 3.01 µM
GI50 [7]: 2000 nM
TGI [7]: 4.46 µM
GI50 [8]: 1800 nM
TGI [8]: 3.34 µM
GI50 [9]: 1580 nM
TGI [9]: 3.34 µM
GI50 [10]: 1720 nM
TGI [10]: 3.4 µM
GI50 [11]: 1760 nM
TGI [11]: 3.36 µM
GI50 [12]: 1630 nM
TGI [12]: 3.15 µM
GI50 [13]: 2170 nM
TGI [13]: 4.71 µM
GI50 [14]: 1810 nM
TGI [14]: 3.67 µM
GI50 [15]: 1440 nM
TGI [15]: 3.75 µM
GI50 [16]: 1700 nM
TGI [16]: 4.34 µM
GI50 [17]: 1660 nM
TGI [17]: 3.41 µM
GI50 [18]: 1570 nM
TGI [18]: 3.12 µM
GI50 [19]: 2160 nM
TGI [19]: 4.92 µM
GI50 [20]: 1840 nM
TGI [20]: 3.39 µM
GI50 [21]: 1780 nM
TGI [21]: 3.22 µM
GI50 [22]: 1870 nM
TGI [22]: 3.71 µM
GI50 [23]: 1650 nM
TGI [23]: 3.12 µM
GI50 [24]: 1630 nM
TGI [24]: 3.2 µM
GI50 [25]: 1530 nM
TGI [25]: 3.13 µM
GI50 [26]: 1730 nM
TGI [26]: 3.24 µM
GI50 [27]: 2030 nM
TGI [27]: 4.15 µM
